# Experimental data: the supplement of paper PMC10307832
# Tests used:
# Test in all cases: relative viability (nuclei count vs DMSO), 5 days (fraction); higher = more cells survive
# [1] = system: NCI-H1563
# Outline: (§1)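 Dosing by pin tool came one day after lung cancer cell lines were seeded in 1536-well plates, using either one drug or a fixed anchor-drug dose plus five library-drug doses (not always all listed) in √10 steps. After 5 days, nuclei were counted on 4× images. Relative viability is treated-well nuclei count divided by vehicle-well nuclei count, and values are medians of duplicate plates.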
# [2] = system: H3255
# Outline: as §1
# [3] = system: NCI-H1993
# Outline: as §1
# [4] = system: 201T
# Outline: as §1
# [5] = system: NCI-H2085
# Outline: as §1
# [6] = system: NCI-H1650
# Outline: as §1
# [7] = system: EPLC-272H
# Outline: as §1
# [8] = system: LOU-NH91
# Outline: as §1
# [9] = system: NCI-H2170
# Outline: as §1
# [10] = system: RERF-LC-KJ
# Outline: as §1
# [11] = system: PC-14
# Outline: as §1
# [12] = system: NCI-H520
# Outline: as §1
# [13] = system: NCI-H647
# Outline: as §1
# [14] = system: NCI-H2023
# Outline: as §1
# [15] = system: SW 900
# Outline: as §1
# [16] = system: NCI-H1734
# Outline: as §1
# [17] = system: NCI-H2347
# Outline: as §1
# [18] = system: NCI-H3122
# Outline: as §1
# [19] = system: NCI-H2405
# Outline: as §1
# [20] = system: NCI-H1793
# Outline: as §1
# [21] = system: NCI-H441
# Outline: as §1
# [22] = system: COR-L23
# Outline: as §1
smiles,measurement,setting,value
O=C(O)c1ccc(-c2c[nH]c3ncc(-c4ccccc4)cc23)cc1C1CCCC1 + COc1cc2c(Oc3ccc(NC(=O)C4(C(=O)Nc5ccc(F)cc5)CC4)cc3F)ccnc2cc1OCCCN1CCOCC1 [Foretinib] (partner 0.25 µM),relative viability,[1]; first compound 0.04 µM,0.924
same,relative viability,[1]; first compound 0.1265 µM,1.03
same,relative viability,[1]; first compound 0.4 µM,0.853
same,relative viability,[1]; first compound 1.265 µM,0.97
same,relative viability,[2]; first compound 0.04 µM,0.934
same,relative viability,[2]; first compound 0.1265 µM,1.08
same,relative viability,[2]; first compound 0.4 µM,0.888
same,relative viability,[2]; first compound 1.265 µM,0.814
same,relative viability,[3]; first compound 0.04 µM,0.788
same,relative viability,[3]; first compound 0.1265 µM,0.834
same,relative viability,[3]; first compound 0.4 µM,0.759
same,relative viability,[3]; first compound 1.265 µM,0.805
same,relative viability,[4]; first compound 0.04 µM,1.29
same,relative viability,[4]; first compound 0.1265 µM,1.25
same,relative viability,[4]; first compound 0.4 µM,1.11
same,relative viability,[4]; first compound 1.265 µM,0.958
same,relative viability,[5]; first compound 0.04 µM,1.14
same,relative viability,[5]; first compound 0.1265 µM,0.988
same,relative viability,[5]; first compound 0.4 µM,0.845
same,relative viability,[5]; first compound 1.265 µM,0.56
same,relative viability,[6]; first compound 0.04 µM,1.22
same,relative viability,[6]; first compound 0.1265 µM,1.57
same,relative viability,[6]; first compound 0.4 µM,1.6
same,relative viability,[6]; first compound 1.265 µM,1.14
same,relative viability,[7]; first compound 0.04 µM,0.694
same,relative viability,[7]; first compound 0.1265 µM,0.752
same,relative viability,[7]; first compound 0.4 µM,0.585
same,relative viability,[7]; first compound 1.265 µM,0.187
same,relative viability,[8]; first compound 0.04 µM,0.892
same,relative viability,[8]; first compound 0.1265 µM,1.03
same,relative viability,[8]; first compound 0.4 µM,0.927
same,relative viability,[8]; first compound 1.265 µM,0.781
same,relative viability,[9]; first compound 0.04 µM,0.994
same,relative viability,[9]; first compound 0.1265 µM,1
same,relative viability,[9]; first compound 0.4 µM,0.968
same,relative viability,[9]; first compound 1.265 µM,0.777
same,relative viability,[10]; first compound 0.04 µM,0.86
same,relative viability,[10]; first compound 0.1265 µM,0.865
same,relative viability,[10]; first compound 0.4 µM,0.933
same,relative viability,[10]; first compound 1.265 µM,0.837
same,relative viability,[11]; first compound 0.04 µM,0.943
same,relative viability,[11]; first compound 0.1265 µM,0.958
same,relative viability,[11]; first compound 0.4 µM,1.01
same,relative viability,[11]; first compound 1.265 µM,0.941
same,relative viability,[12]; first compound 0.04 µM,0.687
same,relative viability,[12]; first compound 0.1265 µM,0.923
same,relative viability,[12]; first compound 0.4 µM,0.78
same,relative viability,[12]; first compound 1.265 µM,0.717
same,relative viability,[13]; first compound 0.04 µM,1.33
same,relative viability,[13]; first compound 0.1265 µM,1.35
same,relative viability,[13]; first compound 0.4 µM,1.14
same,relative viability,[13]; first compound 1.265 µM,0.965
same,relative viability,[14]; first compound 0.04 µM,0.988
same,relative viability,[14]; first compound 0.1265 µM,1
same,relative viability,[14]; first compound 0.4 µM,0.895
same,relative viability,[14]; first compound 1.265 µM,0.749
same,relative viability,[15]; first compound 0.04 µM,0.921
same,relative viability,[15]; first compound 0.1265 µM,0.839
same,relative viability,[15]; first compound 0.4 µM,0.896
same,relative viability,[15]; first compound 1.265 µM,0.824
same,relative viability,[16]; first compound 0.04 µM,0.859
same,relative viability,[16]; first compound 0.1265 µM,1.04
same,relative viability,[16]; first compound 0.4 µM,0.731
same,relative viability,[16]; first compound 1.265 µM,0.766
same,relative viability,[17]; first compound 0.04 µM,0.861
same,relative viability,[17]; first compound 0.1265 µM,0.783
same,relative viability,[17]; first compound 0.4 µM,1.01
same,relative viability,[17]; first compound 1.265 µM,0.803
same,relative viability,[18]; first compound 0.04 µM,0.968
same,relative viability,[18]; first compound 0.1265 µM,0.913
same,relative viability,[18]; first compound 0.4 µM,0.891
same,relative viability,[18]; first compound 1.265 µM,0.87
same,relative viability,[19]; first compound 0.04 µM,1.05
same,relative viability,[19]; first compound 0.1265 µM,1.1
same,relative viability,[19]; first compound 0.4 µM,1.02
same,relative viability,[19]; first compound 1.265 µM,0.747
same,relative viability,[20]; first compound 0.04 µM,0.66
same,relative viability,[20]; first compound 0.1265 µM,0.75
same,relative viability,[20]; first compound 0.4 µM,0.702
same,relative viability,[20]; first compound 1.265 µM,0.602
same,relative viability,[21]; first compound 0.04 µM,1.14
same,relative viability,[21]; first compound 0.1265 µM,0.881
same,relative viability,[21]; first compound 0.4 µM,0.897
same,relative viability,[21]; first compound 1.265 µM,0.563
same,relative viability,[22]; first compound 0.04 µM,1.02
same,relative viability,[22]; first compound 0.1265 µM,1.19
same,relative viability,[22]; first compound 0.4 µM,0.943
same,relative viability,[22]; first compound 1.265 µM,0.636
